Laboratory results reported in ChEMBL document CHEMBL4261612, “Designing dichlorobinaphthoquinone as a prooxidative anticancer agent based on hydrogen peroxide-responsive in situ production of hydroxyl radicals” (Eur J Med Chem, 2018).
pIC50: −log10 of the molar value. The source made the active and inactive calls. The calls are words filed in the database; no cut-off is given here.

Key:
[1] = Induction of hydroxyl radicals generation assessed as methyl radical formation by measuring DMPO/CH3 radical level at 50 uM in presence of H2O2 measured after 5 mins by ESR spectral analysis based EPR secondary radical spin-trapping method; format: functional
[2] = system: A549; experiment: Induction of hydrogen peroxide-responsive hydroxyl radicals generation in human A549 cells at 7.5 uM pretreated for 3 hrs followed by 20 uM coumarin-cyanine probe 1 addition and measured after 0.5 hrs by fluorescence imaging assay; format: functional, cell-based
[3] = system: L02; experiment: Cytotoxicity against human LO2 cells assessed as reduction in cell viability after 48 hrs by MTT assay; format: cell-based; conditions: for pIC50: Homo sapiens, L02, 48 h
[4] = system: A549; experiment: Induction of hydrogen peroxide-responsive hydroxyl radicals generation in human A549 cells at 7.5 uM pretreated for 3 hrs followed by 2 uM rhodamine nitroxide probe 3 addition and measured after 12 hrs by fluorescence imaging assay; format: functional, cell-based
[5] = Induction of hydroxyl radicals generation assessed as DMPO/hydroxyl radical level at 50 uM in presence of H2O2 measured after 5 mins by ESR spectral analysis based EPR secondary radical spin-trapping method; format: functional
[6] = system: A549; experiment: Cytotoxicity against human A549 cells assessed as reduction in cell viability after 48 hrs by MTT assay; format: functional, cell-based; conditions: A549, 48 h
[7] = system: HepG2; experiment: Cytotoxicity against human HepG2 cells assessed as reduction in cell viability after 48 hrs by MTT assay; format: functional, cell-based; conditions: HepG2, 48 h
[8] = system: A549; experiment: Induction of hydrogen peroxide-responsive hydroxyl radicals generation in human A549 cells at 2.5 to 7.5 uM pretreated for 3 hrs followed by 2 uM rhodamine nitroxide probe 3 addition and measured after 12 hrs by fluorescence imaging assay; format: functional, cell-based
[9] = system: L02; experiment: Induction of hydrogen peroxide-responsive hydroxyl radicals generation in human LO2 cells at 7.5 uM pretreated for 3 hrs followed by 20 uM coumarin-cyanine probe 1 addition and measured after 0.5 hrs in presence of catalase by fluorescence imaging assay; format: cell-based; conditions: l02, 0.5 h
[10] = system: L02; experiment: (§1) Cytotoxicity against human LO2 cells assessed as induction of hydrogen peroxide-responsive hydroxyl radicals-mediated cell killing by measuring cell viability at 62.5 uM preincubated for 3 hrs followed by 100 uM H2O2 treatment for 45 mins and measured after 48 hrs by MTT assay; format: cell-based; conditions: l02, 62.5 µM
[11] = system: A549; experiment: Cytotoxicity against human A549 cells assessed as reduction in cell viability co-treated with alpha-tocopherol after 48 hrs by MTT assay; format: functional, cell-based
[12] = system: A549; experiment: as §1, with “A549” for “LO2”, “50” for “100”, “assay (reference value: 75.8%)” for “assay”; format: functional
[13] = system: A549; experiment: Induction of hydrogen peroxide-responsive hydroxyl radicals generation in human A549 cells at 2.5 to 7.5 uM pretreated for 3 hrs followed by 20 uM coumarin-cyanine probe 1 addition and measured after 0.5 hrs by fluorescence imaging assay; format: functional, cell-based
[14] = system: A549; experiment: Induction of hydrogen peroxide-responsive hydroxyl radicals generation in human A549 cells at 7.5 uM pretreated for 3 hrs followed by 20 uM coumarin-cyanine probe 1 addition and measured after 0.5 hrs in presence of catalase by fluorescence imaging assay; format: functional, cell-based

SMILES	Activity [1]	Activity [2]	pIC50 [3]	Activity [4]	Activity [5]	pIC50 [6]	pIC50 [7]	Activity [8]	Activity [9]	Activity ([3]; human, l02, 48 h)	Activity [10]	Activity [11]	Activity [12] [%]	Activity [13]	Activity [14]
O=C1C=C(C2=CC(=O)c3ccccc3C2=O)C(=O)c2ccccc21	inactive	inactive	< 5.00	inactive	inactive	< 5.00	< 5.00	–	–	–	–	–	–	–	–
O=C1C(Cl)=C(C2=C(Cl)C(=O)c3ccccc3C2=O)C(=O)c2ccccc21	Active	–	< 5.00	–	Active	5.67	5.64	Active	Non-Toxic	Non-Toxic	Non-Toxic	Active	52.6	Active	inactive
O=C1C(O)=C(C2=C(Cl)C(=O)c3ccccc3C2=O)C(=O)c2ccccc21	Active	Active	< 5.00	Active	Active	5.37	5.34	–	–	–	–	–	–	–	–
